Laboratory results reported in publication PMC8558867, “Development of BromoTag: A “Bump-and-Hole”–PROTAC System to Induce Potent, Rapid, and Selective Degradation of Tagged Target Proteins” (Journal of Medicinal Chemistry, 2021).

Tests used:
22RV1 cells = test: CellTiter-Glo 2.0 cell viability assay, 22RV1; format: cell-based, human; details: 22RV1, up to 1–10 μM
Experimental: All cell lines were treated with compounds in duplicate (triplicate for DMSO controls) at a 1× concentration in 0.1% DMSO. The compounds were serially diluted to produce a 7-point, 10-fold titration. The cells were treated with 50:100 μL of compound for a final concentration of 10 μM:10 pM in 0.1% DMSO. At the point of spectrometric analysis, cells were treated with 100 μL of Promega CellTiter-Glo 2.0 Cell Viability Assay reagent. The plates were subjected to an orbital shaker for 2 min to encourage lysis and left for a further 5 min to reach peak luminescence. Luminescence was then recorded on a BMG Labtech PHERAstar luminescence plate reader with recommended settings. Data extracted from this analysis was analyzed with GraphPad Prism (v. 8.2.0, GraphPad) and normalized to the DMSO vehicle control. The EC50 values were derived from these plots.

[1] = test system: proteome of heterozygous BromoTag-Brd2 HEK293 cells; test: Multiplexed TMT labeling mass spectrometry proteomics; format: cell-based, human; details: 1 μM, 2 h
Experimental: To do this, we subjected our heterozygous BromoTag-Brd2 HEK293 cell line to a 1 μM treatment of 46, its non-degrading control 52, or vehicle (DMSO) for 2 h prior to harvest. The harvested lysate was then subjected to multiplexed tandem mass tag (TMT) labeling mass spectrometry to enable quantitative and unbiased analysis of protein levels in each condition.
CRISPR-modified BromoTag-Brd2 HEK293 cells (5 × 10^6) were seeded on a […] 24 h before treatment. The cells were treated with either DMSO, 1 μM AGB1, or 1 μM cis-AGB1. After 2 h of treatment, the cells were washed twice with PBS. The cells were lysed in 150 μL of 100 mM TEAB and 5% (w/v) sodium dodecyl sulfate. The lysate was sonicated for 10 s and then centrifuged at 15,000g for 5 min with the supernatant collected post-centrifugation. The samples were then quantified using a micro-BCA protein assay kit (Thermo Fisher Scientific); 300 μg of each sample was then reduced, alkylated, and then digested using the Strap mini protocol (protifi) as described by the manufacturer (protifi) with some modification. The samples were double-digested with trypsin (1:40) first overnight and then for another 6 h with the same ratio (1:40) in 50 mM TEAB buffer. The peptides were quantified using a quantitative fluorometric peptide assay (Thermo Fisher Scientific). […]

Plasma stability = format: in vitro ADME; details: mouse plasma, 37 °C, over 1 h
Experimental: Plasma stability studies were outsourced and undertaken by Shanghai ChemPartner Co., Ltd. Buffer preparation: a solution of 0.05 M sodium phosphate and 0.07 M NaCl buffer at pH 7.4 was made by dissolving 14.505 g/L of Na2HPO4·12H2O, 1.483 g/L of NaH2PO4·2H2O, and 4.095 g/L of NaCl in deionized water, and the pH was adjusted with phosphoric acid. Plasma preparation: frozen mouse plasma was thawed by placing at 37 °C quickly. The thawed plasma was centrifuged at 3000 rpm for 8 min to remove clots, and the supernatant was pooled to be used as the plasma in the experiment. The plasma (pH 7.4–8.0) was stored on ice until used. […] Plasma and spiking solutions were prewarmed at 37 °C for 5 min, and then 10 μL of prewarmed spiking solution B was added into the wells designated for all the time points (5, 15, 30, 45, and 60 min). For 0 min, 400 μL of acetonitrile-containing internal standards (imipramine, glipizide) was added to the wells of a 0 min plate, and then 90 μL of plasma was added. For the time points (0, 5, 15, 30, 45, and 60 min), 90 μL of prewarmed plasma was added at the initial stage. At 5, 15, 30, 45, and 60 min, 400 μL of acetonitrile containing the internal standard (imipramine, glipizide) was added to the wells of the corresponding plates to stop the reaction. […] Data was analyzed with Microsoft Excel.

Structure (SMILES): CC[C@@H](C(=O)OCCOCCOCCOCC(=O)N[C@H](C(=O)N1C[C@H](O)C[C@H]1C(=O)NCc1ccc(-c2scnc2C)cc1)C(C)(C)C)[C@@H]1N=C(c2ccc(Cl)cc2)c2c(sc(C)c2C)-n2c(C)nnc21 [AGB1 (46), (S)-13-((2S,4R)-4-Hydroxy-2-((4-(4-methylthiazol-5-yl)benzyl)carbamoyl)pyrrolidine-1-carbonyl)-14,14-dimethyl-11-oxo-3,6,9-trioxa-12-azapentadecyl (R)-2-((S)-4-(4-chlorophenyl)-2,3,9-trimethyl-6H-thieno[3,2-f][1,2,4]triazolo[4,3-a][1,4]diazepin-6-yl)butanoate]
- cytotoxicity (22RV1 cells): lack of cytotoxicity
- proteins significantly degraded among the 6621 proteins quantified [1]: only Brd2 was shown to be significantly degraded
- plasma stability: levels remaining (Plasma stability): no significant changes
